In experiment [1] the test system is Sprague Dawley rats (CCI neuropathic pain). Put plainly: Chronic constriction injury (CCI) model of neuropathic pain, tactile allodynia by von Frey filaments. The class given is in vivo, rat. As to conditions: male Sprague Dawley rats, 10 mg/kg orally in 10% dimethyl sulfoxide/polyethylene glycol, mechanical allodynia 60 minutes after administration, calculated from log g paw withdrawal threshold. Here is the method: Test compounds can be evaluated for analgesic effect in an in vivo model of neuropathic pain. Specifically, animals were prepared for testing, by use of a surgical procedure that induces neuropathic pain in one paw. IACUC guidelines for rodent survival surgery were followed. All surgical procedures were conducted on a clean, uncluttered surgical station. The area was wiped with a 70% ethanol solution before and after use. All instruments were sterilized by either autoclave or chemical sterilant (such as 2% glutaraldehyde>10 hours). Surgeons wore sterile gloves (for the initial procedure), clean lab coat or scrubs, hairnet or cap, and a half-mask respirator (when not working under a hood). Surgeons thoroughly washed their hands prior to donning sterile gloves. Gloves were disinfected in-between animals by cleansing with povidone iodine, chlorhexidine or 70% alcohol for at least 30 seconds. If multiple surgeries were performed, the instruments were cleaned and sterilized between procedures with hot glass beads (>10 seconds). To prevent thermal or chemical burns, the instruments were cooled by rinsing in sterile saline before use.
Male, Sprague Dawley® rats, 175-200 g were used for surgeries. To minimize post-operative dehydration/maintain blood volume during the surgery, warmed sterile saline or Lactate Ringers solution at 10-15 mL/kg was administered subcutaneously immediately before or after surgery. This facilitates better renal function and presumably anesthesia product excretion post surgery. For all surgical procedures, anesthesia was induced with 4-5% isoflurane. Anesthesia was maintained during surgery with 1-3% isoflurane. Following induction, the surgical site was carefully shaved and the exposed area was aseptically prepared with povidone-iodine scrub solution and 70% ethanol 2-3 times.
Chronic constriction injury (CCI), a model of neuropathic pain, was produced by following the method of Bennett and Xie (Bennett, G., et al. Pain, 1988, 33, 87-107). After site sterilization and anesthetic procedures outline above were completed, a 1.5 cm incision is made at the mid-thigh level to expose the biceps femoris and gluteous superficialis (right side), which were then separated by blunt dissection. The common sciatic nerve was exposed, isolated, and loosely ligated by four 5-0 chromic gut ligatures with <1 mm spacing between each. The surgical site was closed in layers—muscle is closed with 6.0 absorbable sutures, and the skin closed with wound clips. Animals were allowed to recover on a warming plate and were returned to their home cages when fully ambulatory. Animals were not be used for testing until at least 10 days following surgery.
To measure mechanical sensitivity, tactile allodynia was measured using calibrated von Frey filaments (Stoelting, Wood Dale, Ill.) as described by Chaplan et al. (Chaplan S., et al. J of Neuroscience Methods 1994, 53, 55-63). Filament strengths used were: 0.4, 0.6, 1.0, 2, 4, 6, 8, and 15 g. Rats were placed into inverted individual plastic containers (20×12.5×20 cm) on top of a suspended wire mesh grid, and acclimated to the test chambers for at least 20 minutes. Filaments were applied perpendicular to the mid-plantar paw surface with enough force to cause slight buckling and held in place for 6-8 seconds. Positive responses included an abrupt withdrawal of the paw from the stimulus or flinching behavior immediately following removal of the stimulus. The maximum force applied was 15 g. The 50% paw withdrawal threshold (PWT) was calculated in grams (g) using the up-down method of Dixon (Dixon W. Ann Rev Pharmacol Toxicol 1980, 20, 441-462). […] All compounds were orally administered at 10 mg/kg in 10% dimethyl sulfoxide/polyethylene glycol at a volume of 2.0 mL/kg, and mechanical allodynia was determined 60 minutes following compound administration
The data are reported as log g values and the percentage of maximum possible effect (% MPE) is calculated using log g values with the Formula: […]

For experiment [2], the target named is T1, human Cav2.2 (Homo sapiens, UniProt Q00975).
T1 construct: cells endogenously expressing human Cav2.2; endogenous in cells; host or cells: IMR32 cells
The experiment can be described thus: Calcium flux (FLIPR, Calcium 4 dye) in IMR32 cells endogenously expressing human Cav2.2. The format is cell-based. To be noted: 60 minute pre-incubation, 2 μM nifedipine to block L-type channels, depolarized with 80 mM KCl, 5 mM CaCl2, average of n≥2 runs unless marked *. The procedure: Compounds were tested for effect on calcium flux in cells endogenously expressing human Cav2.2. Specifically, IMR32 cells endogenously expressing human Cav2.2 were assayed for Ca^2+ influx using a no-wash calcium indicator dye (Calcium 4 dye: Molecular Probes) and FLIPR technology (Lubin, M L; et al. Assay and Drug Development Technologies, 2006, 4(6), 689-694). The IMR32 cells were maintained in MEM media containing 10% (v/v) FBS, 1% (v/v) antibiotic/antimitotic, 1% (v/v) sodium pyruvate and 1% (v/v) MEM NEAA. Following dissociation in 0.05% (v/v) trypsin/EDTA, cells were seeded into black 1×96-well plates (Corning Cellbind) at a density of 1−1.2×10^5 cells/well and incubated in the maintenance media above for 48 hours at 37° C. Immediately prior to performing the assay the media was removed and cells were loaded for 1.5 hours with 1× Calcium 4 dye prepared in HBSS (137 mM NaCl, 5.4 mM KCl, 0.25 mM Na2HPO4, 0.44 mM KH2PO4, 1.3 mM CaCl2, 1 mM MgSO4, 4.2 mM NaHCO3) containing HEPES pH 7.4 at room temperature. After dye loading and a subsequent 60 minute pre-incubation with compounds (full log dilutions from 10 μM to 0.1 nM) in the presence of 1.3 mM CaCl2 and 2 μM nifedipine to block endogenous L-type channels, the external Ca^2+ concentration was increased to 5 mM CaCl2 and the cells concomitantly depolarized with 80 mM KCl to assay channel activity.
To determine the IC50 values, the percent inhibition of the compound at each concentration was determined relative to the activity in the absence of inhibitor, and data was fitted using non-linear regression sigmoidal dose response curve analysis with GraphPad Prism®. Unless otherwise indicated (*), the reported values are average values from at least two runs (i.e., n≧2).
Background: Calcium flux is commonly read through the fluorescence of an indicator in the cells.

pIC50: −log10 of the molar value.

T1 sequence (Q00975 whole entry): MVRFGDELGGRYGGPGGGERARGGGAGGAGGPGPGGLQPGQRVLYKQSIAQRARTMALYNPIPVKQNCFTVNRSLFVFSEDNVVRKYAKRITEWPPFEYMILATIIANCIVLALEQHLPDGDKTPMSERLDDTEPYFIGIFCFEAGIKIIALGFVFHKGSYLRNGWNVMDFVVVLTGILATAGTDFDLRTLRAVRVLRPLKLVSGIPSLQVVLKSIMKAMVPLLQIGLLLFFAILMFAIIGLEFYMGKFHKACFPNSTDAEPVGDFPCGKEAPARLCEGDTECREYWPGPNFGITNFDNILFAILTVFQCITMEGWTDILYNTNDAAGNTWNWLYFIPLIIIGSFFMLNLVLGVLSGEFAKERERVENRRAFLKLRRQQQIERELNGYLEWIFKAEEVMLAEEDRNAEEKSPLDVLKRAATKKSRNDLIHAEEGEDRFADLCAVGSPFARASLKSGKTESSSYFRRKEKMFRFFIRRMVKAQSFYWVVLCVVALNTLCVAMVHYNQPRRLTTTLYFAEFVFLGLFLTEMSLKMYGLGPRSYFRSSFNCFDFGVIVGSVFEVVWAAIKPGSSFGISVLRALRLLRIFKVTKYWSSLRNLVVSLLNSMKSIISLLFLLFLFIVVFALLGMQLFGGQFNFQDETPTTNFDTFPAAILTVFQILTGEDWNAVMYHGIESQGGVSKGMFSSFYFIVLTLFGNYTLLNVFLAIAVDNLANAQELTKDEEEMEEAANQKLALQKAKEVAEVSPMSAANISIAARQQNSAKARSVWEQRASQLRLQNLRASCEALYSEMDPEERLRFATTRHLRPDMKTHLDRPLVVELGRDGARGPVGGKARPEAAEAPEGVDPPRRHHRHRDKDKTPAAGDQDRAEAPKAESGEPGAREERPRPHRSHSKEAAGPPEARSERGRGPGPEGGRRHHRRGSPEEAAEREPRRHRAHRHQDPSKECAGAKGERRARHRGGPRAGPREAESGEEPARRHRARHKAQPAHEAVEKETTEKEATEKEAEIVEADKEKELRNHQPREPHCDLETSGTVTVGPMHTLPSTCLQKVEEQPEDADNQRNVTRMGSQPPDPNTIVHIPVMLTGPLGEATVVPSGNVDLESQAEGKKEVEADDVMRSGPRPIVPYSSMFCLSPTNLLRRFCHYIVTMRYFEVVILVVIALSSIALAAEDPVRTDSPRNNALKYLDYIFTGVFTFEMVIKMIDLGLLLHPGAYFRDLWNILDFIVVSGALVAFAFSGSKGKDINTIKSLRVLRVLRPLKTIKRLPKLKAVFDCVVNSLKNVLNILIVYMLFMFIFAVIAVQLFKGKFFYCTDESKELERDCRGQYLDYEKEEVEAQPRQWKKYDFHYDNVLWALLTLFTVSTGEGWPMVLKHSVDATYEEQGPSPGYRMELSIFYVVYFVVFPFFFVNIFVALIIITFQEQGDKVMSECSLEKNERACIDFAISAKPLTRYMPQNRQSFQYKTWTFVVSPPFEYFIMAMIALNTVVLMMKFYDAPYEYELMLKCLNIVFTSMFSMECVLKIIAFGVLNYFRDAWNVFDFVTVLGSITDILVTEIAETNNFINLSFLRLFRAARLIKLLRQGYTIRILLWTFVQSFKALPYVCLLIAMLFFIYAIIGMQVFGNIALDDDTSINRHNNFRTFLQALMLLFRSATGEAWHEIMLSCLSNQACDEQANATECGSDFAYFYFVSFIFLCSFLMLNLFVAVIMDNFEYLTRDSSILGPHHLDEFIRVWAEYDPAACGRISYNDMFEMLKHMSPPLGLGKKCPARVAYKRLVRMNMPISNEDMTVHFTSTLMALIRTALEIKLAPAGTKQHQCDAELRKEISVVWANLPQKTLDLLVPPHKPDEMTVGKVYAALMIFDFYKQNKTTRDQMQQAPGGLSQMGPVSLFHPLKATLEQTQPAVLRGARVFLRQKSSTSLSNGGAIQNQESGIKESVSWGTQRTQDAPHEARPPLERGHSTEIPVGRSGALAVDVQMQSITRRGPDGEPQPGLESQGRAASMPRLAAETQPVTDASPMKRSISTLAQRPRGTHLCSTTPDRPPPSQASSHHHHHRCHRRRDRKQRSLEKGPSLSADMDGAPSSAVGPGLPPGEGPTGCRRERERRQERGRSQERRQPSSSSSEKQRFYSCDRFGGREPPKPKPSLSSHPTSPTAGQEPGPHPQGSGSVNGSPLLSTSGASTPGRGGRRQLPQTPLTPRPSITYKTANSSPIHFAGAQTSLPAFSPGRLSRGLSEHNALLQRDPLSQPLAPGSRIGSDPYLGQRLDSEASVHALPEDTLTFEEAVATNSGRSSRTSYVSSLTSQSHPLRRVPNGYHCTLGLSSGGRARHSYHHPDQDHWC
T1 sequence (P54284 whole entry partner): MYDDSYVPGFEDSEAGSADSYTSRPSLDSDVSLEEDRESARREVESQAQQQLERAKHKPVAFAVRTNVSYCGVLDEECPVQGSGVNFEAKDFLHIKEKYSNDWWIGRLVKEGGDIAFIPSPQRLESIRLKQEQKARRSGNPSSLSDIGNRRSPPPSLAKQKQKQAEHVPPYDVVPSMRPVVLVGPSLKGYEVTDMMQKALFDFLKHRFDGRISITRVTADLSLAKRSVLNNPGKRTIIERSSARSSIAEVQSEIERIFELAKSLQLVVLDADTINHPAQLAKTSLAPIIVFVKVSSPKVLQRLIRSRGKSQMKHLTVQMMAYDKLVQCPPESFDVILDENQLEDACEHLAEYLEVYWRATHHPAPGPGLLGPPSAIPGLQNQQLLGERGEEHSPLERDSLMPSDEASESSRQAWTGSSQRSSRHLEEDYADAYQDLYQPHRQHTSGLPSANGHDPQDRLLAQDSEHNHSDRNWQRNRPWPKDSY
T1 sequence (P54289 25-956 partner limits assumed): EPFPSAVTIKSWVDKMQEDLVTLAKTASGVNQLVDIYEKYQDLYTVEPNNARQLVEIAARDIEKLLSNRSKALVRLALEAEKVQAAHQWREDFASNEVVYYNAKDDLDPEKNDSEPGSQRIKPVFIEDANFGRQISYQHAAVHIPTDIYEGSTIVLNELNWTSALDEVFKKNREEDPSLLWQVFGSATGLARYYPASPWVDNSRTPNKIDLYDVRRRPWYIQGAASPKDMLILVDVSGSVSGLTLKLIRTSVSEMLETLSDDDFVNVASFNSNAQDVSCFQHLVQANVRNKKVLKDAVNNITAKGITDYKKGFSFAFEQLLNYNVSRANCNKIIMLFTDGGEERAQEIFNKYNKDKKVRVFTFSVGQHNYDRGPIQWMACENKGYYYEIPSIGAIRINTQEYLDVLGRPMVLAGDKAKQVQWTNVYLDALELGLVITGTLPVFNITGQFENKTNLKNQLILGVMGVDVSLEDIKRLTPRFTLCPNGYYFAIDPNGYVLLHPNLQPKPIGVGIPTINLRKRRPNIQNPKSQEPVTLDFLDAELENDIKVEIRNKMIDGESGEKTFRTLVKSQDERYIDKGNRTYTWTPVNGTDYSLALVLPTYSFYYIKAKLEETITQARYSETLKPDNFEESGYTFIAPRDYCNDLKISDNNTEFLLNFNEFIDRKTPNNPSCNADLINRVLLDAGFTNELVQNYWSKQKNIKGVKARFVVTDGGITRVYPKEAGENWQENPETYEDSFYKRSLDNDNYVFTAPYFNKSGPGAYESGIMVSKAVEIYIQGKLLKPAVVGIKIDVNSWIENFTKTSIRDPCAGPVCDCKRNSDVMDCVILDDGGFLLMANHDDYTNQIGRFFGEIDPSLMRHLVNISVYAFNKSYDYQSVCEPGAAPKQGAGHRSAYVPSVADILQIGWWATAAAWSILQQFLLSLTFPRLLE
T1 sequence (P54289 957-1103 partner limits assumed): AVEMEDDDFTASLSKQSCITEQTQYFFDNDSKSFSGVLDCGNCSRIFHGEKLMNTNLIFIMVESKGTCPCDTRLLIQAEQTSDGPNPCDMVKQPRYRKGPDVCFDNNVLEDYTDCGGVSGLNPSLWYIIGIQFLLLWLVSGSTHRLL

One may read the pIC50 as the IC50 on a negative log10 scale, so that one unit is a factor of ten. Consider `O=C(c1cccc(C(F)(F)F)c1)N1CCCN2C[C@H](Oc3cnc(C4CC4)cn3)C[C@H]2C1` [Example 7, [(8R,9aS)-8-[(5-cyclopropylpyrazin-2-yl)oxy]hexahydro-1H-pyrrolo[1,2-a][1,4]diazepin-2(3H)-yl][3-(trifluoromethyl)phenyl]methanone], for which, in experiment [1], the “% MPE” value is reported as 44%. The negative-log IC50 (pIC50) in experiment [2] is 5.78.
The like results for `O=C(c1ccc(C(F)(F)F)cc1)N1CCCN2C[C@H](Oc3cnc(C4CC4)cn3)C[C@H]2C1` [Example 13, [(8R,9aS)-8-[(5-cyclopropylpyrazin-2-yl)oxy]hexahydro-1H-pyrrolo[1,2-a][1,4]diazepin-2(3H)-yl][4-(trifluoromethyl)phenyl]methanone] were, in that order, 40% and 6.06.
The like results for `FC(F)(F)c1ccc(N2CCCN3C[C@H](Oc4cnc(C5CC5)cn4)C[C@H]3C2)nc1` [Example 19, (8R,9aS)-8-[(5-cyclopropylpyrazin-2-yl)oxy]-2-[5-(trifluoromethyl)pyridin-2-yl]octahydro-1H-pyrrolo[1,2-a][1,4]diazepane] were, in that order, 36% and 5.92.
The like results for `O=C(c1cccc(C(F)(F)F)c1)N1CCC(=O)N2C[C@H](Oc3cnc(C4CC4)cn3)C[C@H]2C1` [Example 32, (8R,9aS)-8-[(5-cyclopropylpyrazin-2-yl)oxy]-2-[3-(trifluoromethyl)benzoyl]octahydro-5H-pyrrolo[1,2-a][1,4]diazepin-5-one] were, in that order, 46% and 5.76.
On to `O=C1CCN(Cc2cccc(C(F)(F)F)c2)C[C@@H]2C[C@@H](Oc3cnc(C4CC4)cn3)CN12` [Example 42, (8R,9aS)-8-[(5-cyclopropylpyrazin-2-yl)oxy]-2-[3-(trifluoromethyl)benzyl]octahydro-5H-pyrrolo[1,2-a][1,4]diazepin-5-one], for which the “% MPE” value in experiment [1] was 27%. In experiment [2], the pIC50 is 6.04.
`O=C1CCN(S(=O)(=O)c2ccc(C(F)(F)F)cc2)C[C@@H]2C[C@@H](Oc3ccc(C(F)(F)F)nc3)CN12` [Example 54, (8R,9aS)-2-{[4-(trifluoromethyl)phenyl]sulfonyl}-8-{[6-(trifluoromethyl)pyridin-3-yl]oxy}octahydro-5H-pyrrolo[1,2-a][1,4]diazepin-5-one]: the pIC50 in experiment [2] was 5.89.
On the same count and under the same terms, in the case of `O=C1CCN(c2ccc(C(F)(F)F)cn2)C[C@H]2C[C@@H](Oc3cnc(C4CC4)cn3)CN12` [Example 55, (8R,9aR)-8-[(5-cyclopropylpyrazin-2-yl)oxy]-2-[5-(trifluoromethyl)pyridin-2-yl]octahydro-5H-pyrrolo[1,2-a][1,4]diazepin-5-one] it was 5.46; in that of `O=C1CCN(Cc2ccc(OC(F)(F)F)cc2)C[C@H]2C[C@@H](Oc3cnc(C4CC4)cn3)CN12` [Example 56, (8R,9aR)-8-[(5-cyclopropylpyrazin-2-yl)oxy]-2-[4-(trifluoromethoxy)benzyl]octahydro-5H-pyrrolo[1,2-a][1,4]diazepin-5-one], 5.60.
Same read-out and setting: in the case of `O=C(c1cccc(C(F)(F)F)c1)N1CCC(=O)N2C[C@H](Oc3cnc(C4CC4)cn3)C[C@@H]2C1` [Example 57, (8R,9aR)-8-[(5-cyclopropylpyrazin-2-yl)oxy]-2-[3-(trifluoromethyl)benzoyl]octahydro-5H-pyrrolo[1,2-a][1,4]diazepin-5-one] it was 4.95; in that of `O=C1CCN(S(=O)(=O)c2ccc(C(F)(F)F)cc2)C[C@H]2C[C@@H](Oc3cnc(C4CC4)cn3)CN12` [Example 58, (8R,9aR)-8-[(5-cyclopropylpyrazin-2-yl)oxy]-2-{[4-(trifluoromethyl)phenyl]sulfonyl}octahydro-5H-pyrrolo[1,2-a][1,4]diazepin-5-one], 5.43; in that of `O=C1CCN(Cc2ccc(OC(F)(F)F)cc2)C[C@@H]2C[C@H](Oc3cnc(C4CC4)cn3)CN12` [Example 59, (8S,9aS)-8-[(5-cyclopropylpyrazin-2-yl)oxy]-2-[4-(trifluoromethoxy)benzyl]octahydro-5H-pyrrolo[1,2-a][1,4]diazepin-5-one], 5.50.
In the case of `O=C(c1cccc(C(F)(F)F)c1)N1CCC(=O)N2C[C@@H](Oc3cnc(C4CC4)cn3)C[C@H]2C1` [Example 60, (8S,9aS)-8-[(5-cyclopropylpyrazin-2-yl)oxy]-2-[3-(trifluoromethyl)benzoyl]octahydro-5H-pyrrolo[1,2-a][1,4]diazepin-5-one], the pIC50 in experiment [2] was 4.73.
Regarding `O=C1CCN(S(=O)(=O)c2ccc(C(F)(F)F)cc2)C[C@@H]2C[C@H](Oc3cnc(C4CC4)cn3)CN12` [Example 61, (8S,9aS)-8-[(5-cyclopropylpyrazin-2-yl)oxy]-2-{[4-(trifluoromethyl)phenyl]sulfonyl}octahydro-5H-pyrrolo[1,2-a][1,4]diazepin-5-one], the negative logarithm of the IC50 (pIC50) in experiment [2] is 5.92.
Regarding `O=C1CCN(Cc2ccc(OC(F)(F)F)cc2)C[C@H]2C[C@H](Oc3cnc(C4CC4)cn3)CN12` [Example 62, (8S,9aR)-8-[(5-cyclopropylpyrazin-2-yl)oxy]-2-[4-(trifluoromethoxy)benzyl]octahydro-5H-pyrrolo[1,2-a][1,4]diazepin-5-one], the pIC50 in experiment [2] was 5.49.
The same measure, in the same setting: in the case of `O=C(c1cccc(C(F)(F)F)c1)N1CCC(=O)N2C[C@@H](Oc3cnc(C4CC4)cn3)C[C@@H]2C1` [Example 63, (8S,9aR)-8-[(5-cyclopropylpyrazin-2-yl)oxy]-2-[3-(trifluoromethyl)benzoyl]octahydro-5H-pyrrolo[1,2-a][1,4]diazepin-5-one] it was 4.65; in that of `O=C1CCN(S(=O)(=O)c2ccc(C(F)(F)F)cc2)C[C@H]2C[C@H](Oc3cnc(C4CC4)cn3)CN12` [Example 64, (8S,9aR)-8-[(5-cyclopropylpyrazin-2-yl)oxy]-2-{[4-(trifluoromethyl)phenyl]sulfonyl}octahydro-5H-pyrrolo[1,2-a][1,4]diazepin-5-one], 5.66; in that of “(8R,9aS)-8-[(5-cyclopropylpyrazin-2-yl)oxy]-2-{[3-(trifluoromethyl)phenyl]sulfonyl}octahydro-1H-pyrrolo[1,2-a][1,4]diazepane [Example 1]”, 6.49.

(Values after patent US9382258B2, “Agents for treating pain and uses thereof” (AbbVie Inc., priority 2012, dated 2016).)
